For data set [1], the system named is POLR2A Ser2 phosphorylation (CDK9). The data set can be described thus: POLR2A Ser2 phosphorylation imaging assay in MCF-7 cells. Format: cell-based. The following applies: Homo sapiens, MCF7, 2 h, MCF-7 cells, 2 hours; read-out: POLR2A Ser2 phosphorylation IC50. A digest of the protocol:
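MCF-7 cells were fixed, permeabilised and immunostained for POLR2A phospho-Ser2, then imaged by high-content microscopy. Levels were normalised to controls and IC50 values derived.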

Data set [2] has as its system NPM phosphorylation (Thr199, CDK2-cyclin E complex). The data set can be described thus: NPM phosphorylation imaging assay in MCF-7 cells. The class given is cell-based. The settings on record: Homo sapiens, 4N DNA cells. A digest of the protocol: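 MCF-7 cells were fixed, permeabilised and immunostained, then imaged for phospho-NPM (Thr199), a CDK2-cyclin E site. Analysis was gated on 4N-DNA cells by Hoechst staining. Signals were normalised to controls and fitted for IC50.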

The target in another data set is CDK2:CCNE1 (Homo sapiens (Human), UniProt P24941). The data set can be described thus: NanoBRET assay in MCF-7 cells, CDK2. The following applies: transfected MCF-7 cells, 2 hours, n = 1 or average. Format: cell-based. A digest of the protocol: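 In live MCF-7 cells, compound added followed by NanoBRET TE Tracer K-9 (stock 200 μM) for CDK2, 2 h at 37° C, 5% CO2.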
In general terms: In BRET a luciferase serves as donor, and the signal depends on an acceptor being close.

For another data set, the system named is MCF-7 cells. The data set can be described thus: Cellular proliferation EdU assay, MCF-7. The following applies: Homo sapiens, MCF7, 48 h, EdU assay, two days; read-out: MCF-7 IC50. Format: cell-based. The essentials: (§1)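 MCF-7 (800 cells/well) and OVCAR3 (1200 cells/well) in RPMI with 10% FBS exposed to compounds for two days at 37 °C.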
The next data set addresses CDK1:CCNB1 (Homo sapiens (Human), UniProt P06493). The data set can be described thus: NanoBRET assay in MCF-7 cells, CDK1. The class given is cell-based. The following applies: NanoBRET, transfected MCF-7 cells, 2 hours; n = 1 or average; read-out: CDK1 IC50. A digest of the protocol:
(§2)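 Transiently transfected MCF-7 cells expressing CDK1:CCNB1 or CDK4:CCND1 were treated with compound plus tracer (CDK1: Tracer K-9, 400 μM stock; CDK4: Tracer K-7, 100 μM stock) for 2 h at 37 °C.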

The target of a further data set is CDK4:CCND1 (Homo sapiens (Human), UniProt P11802). The data set can be described thus: NanoBRET assay in MCF-7 cells, CDK4. The class given is cell-based. The following applies: NanoBRET, transfected MCF-7 cells, 2 hours; n = 1 or average; read-out: CDK4 IC50. The essentials: as §2
A further data set concerns OVCAR3 cells. The data set can be described thus: Cellular proliferation EdU assay, OVCAR3. Format: cell-based, human. The following applies: Homo sapiens, OVCAR-3, 48 h, EdU assay, two days; read-out: OVCAR3 IC50. A digest of the protocol: as §1
The nature of data set [3]: Aqueous thermodynamic solubility, shake-flask. Format: physicochemical. The following applies: aqueous phosphate buffer, 25 °C, pH 7.4, aqueous buffer, thermodynamic from solid, phosphate buffer 0.1 M, pH 7.4, 24 hours. The essentials: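 Dried compound (after DMSO evaporation) was equilibrated in 0.1 M phosphate buffer pH 7.4 with stirring for 24 h at 25° C. Undissolved material was removed by double centrifugation, and the supernatant was diluted in water and quantified by UPLC/MS/MS.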

Data set [4] in a line: CLint assessment in human liver microsomes (HLM). The class given is in vitro ADME. The settings on record: 1 μM. The protocol:
After a preincubation with NADPH for 8 minutes, reactions were initiated through the addition of the test compound (final volume 250 μl) and incubated at 37° C. in a water bath for 30 minutes. […] Samples were shaken at 800 rpm for 2 minutes and centrifuged at 4000 rpm for 20 minutes at 4° C. to pellet precipitated protein. The supernatant fraction was diluted 1:5 with deionized water, shaken at 1000 rpm for 2 minutes, and further diluted 1:1 with deionized water. Samples were analyzed by LC-MS/MS. The t1/2 and the CLint of the compounds incubated in the LM, HLM, and HμREL assays as described above were calculated according to the following equations: […] where V (μl/×10^6 cells or mg protein) is the incubation volume (μl) divided by the number of cells (×10^6) or microsomal protein content (mg) in the incubation.

11 compounds from US20250197425A1, “2,6,9-TRISUBSTITUTED PURINES” (ASTRAZENECA AB, priority 2022, published 2025) can be followed below.

The pIC50 is −log10 of the IC50, conventionally taken in molar units. The solubility is the concentration that dissolves in the medium under given conditions. Low values mean a poorly soluble substance, high ones a readily soluble substance.

SMILES strings stand for the structures. pIC50: −log10 of the molar value. ≈ marks a conversion by molar mass, not a printed value. Where only a bound is given, the exact number is not on record here.

CDK4:CCND1, sequence (P11802 whole entry): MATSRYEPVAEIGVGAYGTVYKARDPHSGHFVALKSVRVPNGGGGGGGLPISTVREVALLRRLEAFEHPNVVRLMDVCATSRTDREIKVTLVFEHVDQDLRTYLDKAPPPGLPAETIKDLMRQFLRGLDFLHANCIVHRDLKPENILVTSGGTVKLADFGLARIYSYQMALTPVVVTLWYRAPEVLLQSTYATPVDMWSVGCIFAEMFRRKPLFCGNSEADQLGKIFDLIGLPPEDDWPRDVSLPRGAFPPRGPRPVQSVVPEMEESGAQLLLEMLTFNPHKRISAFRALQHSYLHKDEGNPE
CDK4:CCND1, sequence (P24385 whole entry partner): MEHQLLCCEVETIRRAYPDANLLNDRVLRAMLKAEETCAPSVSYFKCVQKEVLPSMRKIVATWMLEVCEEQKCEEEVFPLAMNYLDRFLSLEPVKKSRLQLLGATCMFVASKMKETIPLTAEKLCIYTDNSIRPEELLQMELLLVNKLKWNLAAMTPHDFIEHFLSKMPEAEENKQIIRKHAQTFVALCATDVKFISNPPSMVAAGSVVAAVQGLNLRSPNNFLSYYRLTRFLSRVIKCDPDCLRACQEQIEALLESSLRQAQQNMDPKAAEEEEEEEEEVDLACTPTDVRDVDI
CDK1:CCNB1, sequence (P06493 whole entry): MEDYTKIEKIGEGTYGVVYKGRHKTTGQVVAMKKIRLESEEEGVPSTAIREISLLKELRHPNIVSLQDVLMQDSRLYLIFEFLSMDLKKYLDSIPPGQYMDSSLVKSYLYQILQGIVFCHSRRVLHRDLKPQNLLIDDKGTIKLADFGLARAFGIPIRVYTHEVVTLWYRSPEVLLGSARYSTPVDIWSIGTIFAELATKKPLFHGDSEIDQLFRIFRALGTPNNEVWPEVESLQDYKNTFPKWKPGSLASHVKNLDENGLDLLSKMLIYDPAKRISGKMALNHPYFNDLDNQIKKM
CDK1:CCNB1, sequence (P14635 whole entry partner): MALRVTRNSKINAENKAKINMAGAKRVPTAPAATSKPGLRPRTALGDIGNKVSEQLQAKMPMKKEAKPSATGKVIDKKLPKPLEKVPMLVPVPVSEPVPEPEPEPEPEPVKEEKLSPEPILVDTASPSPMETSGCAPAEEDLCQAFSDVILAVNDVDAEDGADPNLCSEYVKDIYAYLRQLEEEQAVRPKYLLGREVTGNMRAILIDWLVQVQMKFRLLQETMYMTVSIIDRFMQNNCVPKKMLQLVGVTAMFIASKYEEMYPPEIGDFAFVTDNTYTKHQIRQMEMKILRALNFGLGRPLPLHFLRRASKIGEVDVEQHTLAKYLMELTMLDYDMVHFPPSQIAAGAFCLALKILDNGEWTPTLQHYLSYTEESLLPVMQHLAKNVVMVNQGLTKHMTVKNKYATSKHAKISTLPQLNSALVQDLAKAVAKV

`CC(C)n1cnc2c(N[C@H]3CCN(S(C)(=O)=O)C3)nc(NC(CO)C3CCCC3)nc21` (stereo partly drawn) [Example 15, 2-cyclopentyl-2-((9-isopropyl-6-(((S)-1-(methylsulfonyl)pyrrolidin-3-yl)amino)-9H-purin-2-yl)amino)ethan-1-ol]: the pIC50 was under 4.52 in data set [1]; 6.64 in data set [2] (MCF7, 2 h); 7.66 at CDK2:CCNE1; 6.04 in the data set with MCF-7 cells; 5.92 on CDK1:CCNB1; 5.59 at CDK4:CCND1. Further, the pIC50 with OVCAR3 cells was 6.25. Besides, the solubility at 24 h in data set [3] is 132 µM (≈ 59.6 µg/mL). Further, the “HLM CLint” value in [4] was over 300 µL/min/mg.

As to `CC(C)n1cnc2c(N[C@H]3CCN(S(C)(=O)=O)C3)nc(NC(CO)C3CCCO3)nc21` (stereo partly drawn) [Example 16, 2-((9-isopropyl-6-(((S)-1-(methylsulfonyl)pyrrolidin-3-yl)amino)-9H-purin-2-yl)amino)-2-(tetrahydrofuran-2-yl)ethan-1-ol], the pIC50 was under 4.52 in data set [1]; 6.43 in [2] (MCF7, 2 h); 7.03 at CDK2:CCNE1; 5.60 with MCF-7 cells; 5.80 at CDK1:CCNB1; 4.76 at CDK4:CCND1. Also, the pIC50 in the data set on OVCAR3 cells was 6.02. This compound also yielded a solubility at 24 h in data set [3] of over 1000 µM. Also, the “HLM CLint” value in [4] stood at 96.5 µL/min/mg.

As for `CC[C@H](Nc1nc(N[C@H]2CCN(S(=O)(=O)NC[C@H]3COCCO3)C2)c2ncn(CC)c2n1)[C@@H](C)O` [Example 23, (S)—N—(((S)-1,4-dioxan-2-yl)methyl)-3-((9-ethyl-2-(((2R,3S)-2-hydroxypentan-3-yl)amino)-9H-purin-6-yl)amino)pyrrolidine-1-sulfonamide], the pIC50 was under 4.52 in [1]; 6.32 in [2] (MCF7, 2 hours); 7.24 against CDK2:CCNE1; 5.71 with MCF-7 cells; 5.59 on CDK1:CCNB1; under 4.53 at CDK4:CCND1. For the same compound, in the data set on OVCAR3 cells, the pIC50 was 6.31. Besides, the solubility at 24 h in [3] was 814 µM (≈ 417 µg/mL). Further, the “HLM CLint” value in [4] turned out to be 57.5 µL/min/mg.

`CC[C@H](Nc1nc(N[C@H]2CCN(S(=O)(=O)NC[C@@H]3COCCO3)C2)c2ncn(CC)c2n1)[C@@H](C)O` [Example 25, (S)—N—(((R)-1,4-dioxan-2-yl)methyl)-3-((9-ethyl-2-(((2R,3S)-2-hydroxypentan-3-yl)amino)-9H-purin-6-yl)amino)pyrrolidine-1-sulfonamide]: the pIC50 is under 4.52 in data set [1]; 6.20 in data set [2] (MCF7, 2 hours); 7.16 on CDK2:CCNE1; 5.85 in the data set on MCF-7 cells; 5.40 at CDK1:CCNB1; under 4.53 at CDK4:CCND1. Also, the pIC50 with OVCAR3 cells was 6.19. The compound further yielded a solubility at 24 h in data set [3] of 912 µM (≈ 468 µg/mL). Moreover, the “HLM CLint” value in data set [4] is 61.6 µL/min/mg.

On to `CC(C)[C@H](CO)Nc1nc(N[C@H]2CCN(S(=O)(=O)C3CC3)C2)c2ncn(C(C)C)c2n1` [Example 27, (R)-2-((6-(((S)-1-(cyclopropylsulfonyl)pyrrolidin-3-yl)amino)-9-isopropyl-9H-purin-2-yl)amino)-3-methylbutan-1-ol], for which the pIC50 in data set [1] is under 4.52; in data set [2] (MCF7, 2 hours), 6.57; against CDK2:CCNE1, 7.96; in the data set with MCF-7 cells it was 6.08; on CDK1:CCNB1, 5.85; on CDK4:CCND1, 5.47. For the same compound, in the data set with OVCAR3 cells, the pIC50 was 6.47. This compound also displayed a solubility at 24 h in data set [3] of 39.8 µM (≈ 18 µg/mL). In data set [4], the “HLM CLint” value is over 300 µL/min/mg.

With `CC(C)[C@H](CO)Nc1nc(N[C@H]2CCN(S(C)(=O)=O)C2)c2ncn(C3CC3)c2n1` [Example 29, (R)-2-((9-cyclopropyl-6-(((S)-1-(methylsulfonyl)pyrrolidin-3-yl)amino)-9H-purin-2-yl)amino)-3-methylbutan-1-ol], the pIC50 in data set [1] is under 4.52; in data set [2] (MCF7, 2 h) it was 5.66; at CDK2:CCNE1 it was 7.05; in the data set with MCF-7 cells it was 5.62; on CDK1:CCNB1, 5.43; at CDK4:CCND1, under 4.53. For the same compound, the pIC50 in the data set on OVCAR3 cells was 5.86. Moreover, the solubility at 24 h in [3] was 71.2 µM (≈ 30.2 µg/mL). In addition, the “HLM CLint” value in [4] amounted to 90.5 µL/min/mg.

In the case of `CC(C)n1cnc2c(N[C@H]3CCN(S(C)(=O)=O)C3)nc(N[C@@H](CO)C3CC3)nc21` [Example 30, (R)-2-cyclopropyl-2-((9-isopropyl-6-(((S)-1-(methylsulfonyl)-pyrrolidin-3-yl)amino)-9H-purin-2-yl)amino)ethanol], the pIC50 in data set [1] was under 4.52; in [2] (MCF7, 2 hours), 6.70; against CDK2:CCNE1, 7.72; with MCF-7 cells, 6.11; at CDK1:CCNB1 it was 6.13; at CDK4:CCND1, 5.24. Moreover, the negative logarithm of the IC50 (pIC50) with OVCAR3 cells was 6.72. In data set [3], the solubility at 24 h worked out at 276 µM (≈ 117 µg/mL). Also, in data set [4], the “HLM CLint” value was determined as 191 µL/min/mg.

Regarding `CC[C@H](Nc1nc(N[C@H]2CCN(S(=O)(=O)c3cnn(C)c3)C2)c2ncn(C(C)C)c2n1)[C@@H](C)O` [Example 31, (2R,3S)-3-((9-isopropyl-6-(((S)-1-((1-methyl-1H-pyrazol-4-yl)sulfonyl)pyrrolidin-3-yl)amino)-9H-purin-2-yl)amino)pentan-2-ol], the pIC50 in data set [1] is under 4.52; in data set [2] (MCF7, 2 hours), 5.98; on CDK2:CCNE1, 7.41; in the data set on MCF-7 cells, 5.50; at CDK1:CCNB1, 5.20; at CDK4:CCND1, under 4.53. Besides, in the data set with OVCAR3 cells, the pIC50 was 6.02. The compound also showed a solubility at 24 h in data set [3] of over 1000 µM. The “HLM CLint” value in [4] turned out to be 154 µL/min/mg.

Regarding `CC[C@H](Nc1nc(N[C@H]2CCN(S(=O)(=O)c3cn(C)cn3)C2)c2ncn(C(C)C)c2n1)[C@@H](C)O` [Example 32, (2R,3S)-3-((9-isopropyl-6-(((S)-1-((1-methyl-1H-imidazol-4-yl)sulfonyl)pyrrolidin-3-yl)amino)-9H-purin-2-yl)amino)pentan-2-ol], the pIC50 in [1] was under 4.52; in data set [2] (MCF7, 2 hours), 6.22; at CDK2:CCNE1, 7.09; with MCF-7 cells, 5.52; on CDK1:CCNB1, 5.65; on CDK4:CCND1 it was 4.55. In the data set on OVCAR3 cells, the pIC50 is 6.16. Moreover, the solubility at 24 h in data set [3] was over 1000 µM. In addition, the “HLM CLint” value in data set [4] worked out at 73 µL/min/mg.

As for `CC(C)[C@H](CO)Nc1nc(N[C@H]2C[C@@H](C)N(S(C)(=O)=O)C2)c2ncn(C(C)C)c2n1` [Example 34, (R)-2-((9-isopropyl-6-(((3S,5R)-5-methyl-1-(methylsulfonyl)-pyrrolidin-3-yl)amino)-9H-purin-2-yl)amino)-3-methylbutan-1-ol], the pIC50 in data set [1] was under 4.52; in data set [2] (MCF7, 2 hours), 6.42; against CDK2:CCNE1, 7.92; in the data set on MCF-7 cells, 5.94; at CDK1:CCNB1 it was 6.07; on CDK4:CCND1, 4.93. For the same compound, in the data set with OVCAR3 cells, the pIC50 was 6.31. The compound also registered a solubility at 24 h in [3] of 59.9 µM (≈ 26.3 µg/mL). For the same compound, the “HLM CLint” value in data set [4] was over 300 µL/min/mg.

For `CC(C)[C@H](CO)Nc1nc(N[C@H]2C[C@H](C)N(S(C)(=O)=O)C2)c2ncn(C(C)C)c2n1` [Example 35, (R)-2-((9-isopropyl-6-(((3S,5S)-5-methyl-1-(methylsulfonyl)-pyrrolidin-3-yl)amino)-9H-purin-2-yl)amino)-3-methylbutan-1-ol], the pIC50 in data set [1] is under 4.52; in data set [2] (MCF7, 2 hours), 5.91; on CDK2:CCNE1 it was 7.28; in the data set on MCF-7 cells it was 5.48; at CDK1:CCNB1 it was 5.22; at CDK4:CCND1, 4.95. In addition, in the data set with OVCAR3 cells, the pIC50 is 5.79. The compound also came in with a solubility at 24 h in data set [3] of 26.4 µM (≈ 11.6 µg/mL). Besides, the “HLM CLint” value in data set [4] is over 300 µL/min/mg.
